The results in this text go back to ChEMBL document CHEMBL3046882, “Synthesis and antibacterial activity against ralstonia solanacearum for novel hydrazone derivatives containing a pyridine moiety” (2012).

Experiment [1] concerns Ralstonia solanacearum. The experiment is described as follows: Antibacterial activity against Ralstonia solanacearum assessed as growth inhibition at […] after 48 hrs by turbidimeter test. The note with it: for inhibition of growth: read-out: GI. Also noted: dose or concentration left out as unconfirmed. Format: functional.
For experiment [2], the system named is Ralstonia solanacearum. The experiment is described as follows: Antibacterial activity against Ralstonia solanacearum assessed as growth inhibition at […] after 48 hrs by turbidimeter test. Format: functional. Further details: dose or concentration left out as unconfirmed. Particulars: for inhibition of growth: read-out: GI.

For `COc1ccc(OC)c(/C=N\NC(=O)c2cc(Cl)cc(C)c2NC(=O)c2cccnc2Cl)c1`, the inhibition of growth in experiment [1] was found to be 1.9%; in experiment [2], 25.2%.
For `Cc1cc(Cl)cc(C(=O)N/N=C\c2ccc(Cl)c(Cl)c2)c1NC(=O)c1cccnc1Cl`, the inhibition of growth in experiment [1] turned out to be 12.4%; in experiment [2], 35%.
The corresponding values for `Cc1cc(Cl)cc(C(=O)N/N=C\c2c(Cl)cccc2Cl)c1NC(=O)c1cccnc1Cl` are 15.2% and 18.2%.
The corresponding values for `Cc1cc(Cl)cc(C(=O)N/N=C\c2cccc(C(F)(F)F)c2)c1NC(=O)c1cccnc1Cl` are 33.3% and 80.9%.
In the same order, the values of `COc1cccc(/C=N\NC(=O)c2cc(Cl)cc(C)c2NC(=O)c2cccnc2Cl)c1OC` are 0% and 40.3%.
Turning to `COc1ccc(/C=N\NC(=O)c2cc(Cl)cc(C)c2NC(=O)c2cccnc2Cl)c(OC)c1`, the figures for the inhibition of growth in experiment [1] and in experiment [2] were 0% and 36.1%, respectively.
In the same order, the values of `CC/C=N\NC(=O)c1cc(Cl)cc(C)c1NC(=O)c1cccnc1Cl` are 0% and 5%.
For the compound `Cc1cc(Cl)cc(C(=O)N/N=C\c2ccc(C(C)(C)C)cc2)c1NC(=O)c1cccnc1Cl`, the inhibition of growth in experiment [1] amounted to 18.2%; in experiment [2], 39%.
For the compound COPPER HYDROXIDE, the growth inhibition (GI) in experiment [1] and in experiment [2] was 100% each time.
As to `Cc1cc(Cl)cc(C(=O)N/N=C\c2ccccc2Cl)c1NC(=O)c1cccnc1Cl`, the inhibition of growth was determined as 0% in experiment [1] and 6% in experiment [2].
On to `Cc1cc(Cl)cc(C(=O)N/N=C\N(C)C)c1NC(=O)c1cccnc1Cl`, for which the inhibition of growth in experiment [1] came out at 57.1%; in experiment [2] it was 100%.
For the compound `Cc1cc(Cl)cc(C(=O)N/N=C\c2ccc(F)cc2)c1NC(=O)c1cccnc1Cl`, the inhibition of growth in experiment [1] was 1.1%; in experiment [2], 5%.
